# Source: patent US20160304957A1, “TREATMENT AND MODULATION OF GENE EXPRESSION AND SKIN AGING” (DSM NUTRITIONAL PRODUCTS LTD., priority 2006, published 2016)
# How the values were obtained:
# RARα = experiment: QRT-PCR gene expression in HaCaT cells with or without UVA; format: cell-based, human
# Procedure: (§1) HaCaT cells were obtained from Prof. Fusenig, German Cancer Research Centre, Heidelberg. […] The accuracy of cell counting was approximately 99%.
# (§2) On day 3 of the experiment, cells were washed six times with Ca/Mg-free PBS containing 2% BSA, and then irradiated with light with a Hönle sun lamp Sol 500 (Dr. Hönle, Plannegg, Germany) at a dose of 270 kJ/m^2 in Ca/Mg-free PBS (2 hour exposure time at […]). The experimental schedule was chosen because the cells had optimal UVA sensitivity after 48 hours in culture. […] Confluent cultures were much less sensitive to irradiation.
# (§3) After irradiation, the cells were supplied with fresh β-carotene-containing serum-free medium and kept in the incubator at 37° C., 5% CO2 until harvest of the samples. In experiments in which the half-life of ^1O2 was prolonged by D2O to enhance its effect, PBS was prepared in D2O, instead of in H2O, as it was done for the standard conditions described above. Cells were washed twice in D2O-PBS prior to irradiation in D2O-PBS. After irradiation, cells were maintained with fresh β-carotene-containing serum-free medium. Sham controls were treated in an identical manner, by placing them under the solar simulator but shielded from light.
# (§4) Total RNA was isolated by using Trizol™ (Invitrogen, Basel, Switzerland) according to the instructions of the manufacturer. Random-primed cDNA was synthesized using the Superscript pre-amplification system for first strand cDNA synthesis (Invitrogen).
# (§5) cDNA corresponding to 10 ng total RNA was used as template to quantify the relative RNA expression of the genes of interest by TaqMan® real time PCR.
# (§6) The PCR analyses were carried out in triplicate and in a multiplex setup, using 18S rRNA as a calibrator gene. The rRNA primers were used at a final concentration of 50 nM, the probe at 100 nM. For quantification of the genes of interest, the primer concentrations were optimized for sensitivity of template detection. […] PCR reactions were carried out for 40 cycles of 95° C. for 15 seconds and 60° C. for 1 minute in an ABI7700 (Applied Biosystems, Rotkreuz, Switzerland). Regulation of gene expression was calculated as described in user bulletin #2 provided by the manufacturer. A threshold cycle (“CT”) is the first PCR cycle in which an amplification signal is detected. Expression levels are given as δCT values. The δCT value describes the level of gene expression as the average PCR cycle, in which the gene of interest was detected first (CT value), subtracted by the CT value of the calibrator gene 18S rRNA (CTgene of interest−CTcalibrating gene), 18S rRNA served as a measure for the amount of template in the reaction. Routinely, 18S rRNA was detected between PCR cycle 12 and 13 (SE=standard error) A low δCT corresponds to a high mRNA level.
# (§7) HaCaT cells were pretreated for 2 days with 0.5, 1.5 or 3 μM β-carotene. The cells were irradiated with UVA (270 kJ/m^2) either in D2O-containing PBS or in H2O-containing PBS, to analyze ^1O2 inducibility of genes. Gene expression 5 hours after UVA irradiation was analyzed by QRT-PCR. Values are geometric means±standard error from three independent experiments. Upregulations greater than 1.5-fold are labelled in bold black, downregulations below 0.66-fold are bold grey.
# [1] = test system: β-carotene-9′,10′-oxygenase; experiment: as above; format: cell-based, human
# Procedure: as §1, §2, §3, §4, §5, §6, §7
smiles,measurement,setting,value
"CC1=C(/C=C/C(C)=C/C=C/C(C)=C/C=C/C=C(C)/C=C/C=C(C)/C=C/C2=C(C)CCCC2(C)C)C(C)(C)CCC1 [β-carotene, All-E-β-carotene]",basal or UVA-regulated expression level of RARα,RARα,no significant effect
same,RARα fold induction,"RARα; D2O, UVA/βC 0.5 μM",1.06 fold
same,RARα fold induction,"RARα; D2O, UVA/βC 1.5 μM",1.21 fold
same,RARα fold induction,"RARα; D2O, UVA/βC 3 μM",0.52 fold
same,RARα fold induction,"RARα; D2O, βC 0.5 μM",1.01 fold
same,RARα fold induction,"RARα; D2O, βC 1.5 μM",1.02 fold
same,RARα fold induction,"RARα; D2O, βC 3 μM",1.18 fold
same,RARα fold induction,"RARα; H2O, UVA/βC 0.5 μM",1.45 fold
same,RARα fold induction,"RARα; H2O, UVA/βC 1.5 μM",0.47 fold
same,RARα fold induction,"RARα; H2O, UVA/βC 3 μM",0.71 fold
same,RARα fold induction,"RARα; H2O, βC 0.5 μM",0.56 fold
same,RARα fold induction,"RARα; H2O, βC 1.5 μM",0.67 fold
same,RARα fold induction,"RARα; H2O, βC 3 μM",0.55 fold
same,"βC-9′,10′-oxygenase fold induction","[1]; D2O, UVA/βC 0.5 μM",1.43 fold
same,"βC-9′,10′-oxygenase fold induction","[1]; D2O, UVA/βC 1.5 μM",2.30 fold
same,"βC-9′,10′-oxygenase fold induction","[1]; D2O, UVA/βC 3 μM",2.19 fold
same,"βC-9′,10′-oxygenase fold induction","[1]; D2O, βC 0.5 μM",0.93 fold
same,"βC-9′,10′-oxygenase fold induction","[1]; D2O, βC 1.5 μM",1.19 fold
same,"βC-9′,10′-oxygenase fold induction","[1]; D2O, βC 3 μM",1.11 fold
same,"βC-9′,10′-oxygenase fold induction","[1]; H2O, UVA/βC 0.5 μM",0.75 fold
same,"βC-9′,10′-oxygenase fold induction","[1]; H2O, UVA/βC 1.5 μM",0.70 fold
same,"βC-9′,10′-oxygenase fold induction","[1]; H2O, UVA/βC 3 μM",0.99 fold
same,"βC-9′,10′-oxygenase fold induction","[1]; H2O, βC 0.5 μM",0.90 fold
same,"βC-9′,10′-oxygenase fold induction","[1]; H2O, βC 1.5 μM",0.85 fold
same,"βC-9′,10′-oxygenase fold induction","[1]; H2O, βC 3 μM",0.76 fold
same,"β-carotene-9′,10′-oxygenase RNA level","[1]; β-carotene, UVA, D2O treatments",not significantly influenced
